Earlier results, collected in patent US20090148430A1, “HUMAN OBESITY SUSCEPTIBILTY GENE ENCODING POTASSIUM ION CHANNELS AND USES THEREOF” (priority 2004, published 2009).

What was measured:
[1] = tested on: Kv channel; conditions: extracellular application, MASMC and intestinal epithelial cells, rats
[2] = target: Kv1.5 (Rattus norvegicus, UniProt P19024); conditions: independent of effects on PTK activity
[3] = tested on: pig Kv1.5; conditions: expressed in Xenopus oocytes; read-out: IC(50) block of pig Kv1.5
[4] = target: T1, cloned rat brain potassium channel Kv1.1 (Rattus norvegicus, UniProt P10499); conditions: Kv1.1, Xenopus laevis oocytes
T1 construct: host or cells: Xenopus laevis oocytes
T1 sequence (P10499 whole entry): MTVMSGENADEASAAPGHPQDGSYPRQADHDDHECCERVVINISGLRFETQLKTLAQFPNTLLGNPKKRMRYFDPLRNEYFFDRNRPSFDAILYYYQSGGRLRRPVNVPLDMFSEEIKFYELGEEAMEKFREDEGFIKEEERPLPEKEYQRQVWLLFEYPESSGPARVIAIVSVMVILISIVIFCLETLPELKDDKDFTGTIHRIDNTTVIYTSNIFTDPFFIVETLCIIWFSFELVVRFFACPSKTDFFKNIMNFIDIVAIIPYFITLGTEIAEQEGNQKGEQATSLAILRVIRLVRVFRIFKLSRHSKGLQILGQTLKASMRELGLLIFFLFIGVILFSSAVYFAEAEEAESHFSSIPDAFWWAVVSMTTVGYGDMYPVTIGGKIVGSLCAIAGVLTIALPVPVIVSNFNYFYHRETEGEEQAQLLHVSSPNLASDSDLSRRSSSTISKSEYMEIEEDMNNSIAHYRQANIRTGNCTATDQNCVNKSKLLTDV

[5] = tested on: guinea-pig ileum
[6] = tested on: Kv channel; conditions: vascular smooth muscle cells
[7] = tested on: KV currents including Kv1.1; conditions: mammalian neurons, therapeutic levels
[8] = intranasal, healthy controls
[9] = tested on: rats
[10] = massively obese child with leptin deficiency mutation

Kv1.5, sequence (P19024 whole entry): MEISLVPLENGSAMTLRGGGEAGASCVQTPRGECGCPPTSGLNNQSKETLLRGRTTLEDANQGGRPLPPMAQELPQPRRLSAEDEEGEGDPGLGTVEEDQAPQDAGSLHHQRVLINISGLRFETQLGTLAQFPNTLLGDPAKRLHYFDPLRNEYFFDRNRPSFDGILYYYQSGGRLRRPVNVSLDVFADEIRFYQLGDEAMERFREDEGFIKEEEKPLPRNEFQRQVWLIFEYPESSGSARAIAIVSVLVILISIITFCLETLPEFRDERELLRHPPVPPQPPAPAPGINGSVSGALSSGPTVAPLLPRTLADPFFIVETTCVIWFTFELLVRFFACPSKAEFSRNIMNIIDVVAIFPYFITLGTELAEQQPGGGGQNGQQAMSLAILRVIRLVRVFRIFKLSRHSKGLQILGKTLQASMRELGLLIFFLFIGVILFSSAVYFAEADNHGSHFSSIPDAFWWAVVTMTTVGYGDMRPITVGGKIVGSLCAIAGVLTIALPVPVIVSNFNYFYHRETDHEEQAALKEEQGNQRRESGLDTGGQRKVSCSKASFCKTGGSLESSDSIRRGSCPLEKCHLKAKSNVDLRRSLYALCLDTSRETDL

Nc1ccncc1 [4-aminopyridine]
effect of K+ channel blockade [1]: anorexic effect

COc1cc2ncnc(Nc3cccc(Cl)c3)c2cc1OC [AG-1478]
action on Kv1.5 currents [2]: open-channel blocker

COc1ccc(CC(=O)NCc2ccccc2-c2ccccc2C(=O)NCCc2cccnc2)cc1 [AVE0118]
IC50 [3]: 5.4 µM

C1CCc2nnnn2CC1 [PTZ, pentylenetetrazol]
effect on potassium currents at more negative potentials ([4]; more negative potentials): increased the potassium currents | effect on potassium currents at more positive potentials ([4]; more positive potentials): decreased them

C=C1C[C@@]2(O)[C@@H]3CC[C@@]4(C)[C@@H]5C=CC(=O)OC[C@]5(C(C)OC(C)=O)[C@@H](OC(C)=O)[C@@H](OC(C)=O)[C@@H]4[C@@]3(C)[C@H](OC(C)=O)[C@H](OC(C)=O)[C@@]2(C)C2(C(=O)OC)O[C@H]12 (some centres unmarked) [correolide]
pressure threshold for eliciting peristaltic contractions [5]: progressive and sustained reduction

CCN[C@@H](C)Cc1cccc(C(F)(F)F)c1 [dexenfluramine]
Kv channel activity [6]: decrease Kv channel activity

CCNC(C)Cc1cccc(C(F)(F)F)c1 (centres unmarked) [fenfluramine]
Kv channel activity [6]: decrease Kv channel activity

CNCCC(Oc1ccc(C(F)(F)F)cc1)c1ccccc1 (centres unmarked) [fluoxetine]
block of KV currents including Kv1.1 [7]: can occur at therapeutic levels

ACTH4-10: adrenocorticotropin4-10, representing a core sequence of all melanocortins (MEHFRWG; Corticotropin; UniProt P01189 141-147, looked up, fragment)
body fat mass [8]: reduced | plasma leptin concentrations [8]: reduced | weight [8]: reduced

Kaliotoxin: a Kv1.1 and Kv1.3 channel blocker
associative learning [9]: improves associative learning

alpha-dendrotoxin
peristaltic activity [5]: increases the peristaltic activity | pressure threshold for eliciting peristaltic contractions [5]: immediate reduction

dendrotoxin-K
peristaltic activity [5]: increases the peristaltic activity | pressure threshold for eliciting peristaltic contractions [5]: immediate reduction

margatoxin (TIINVKCTSPKQCLPPCKAQFGQSAGAKCMNGKCKCYPH; UniProt P40755 1-39, looked up)
peristaltic activity [5]: increases the peristaltic activity | pressure threshold for eliciting peristaltic contractions [5]: immediate reduction

recombinant leptin: recombinant leptin used to treat a child with a leptin deficiency mutation
treatment outcome [10]: treated successfully
